Data: patent US10441562B2, “Aromatic farnesyl compound and application thereof” (INSTITUTE OF MICROBIOLOGY, CHINESE ACADEMY OF SCIENCES, priority 2015, dated 2019)
Like-named read-outs stand apart in the source and are kept apart here.

Experiments:
Type in all cases: biochemical
dipeptidyl peptidase-4 = biological target: T1, dipeptidyl peptidase-4 (Homo sapiens, UniProt P27487); assay: dipeptidyl peptidase-4 inhibitory activity test in vitro (DPP-4 inhibitor screening kit)
T1 construct: purchased
From the text: The above compounds are detected by DPP-4 inhibitor screening kit.

HMG-CoA reductase = biological target: T2, HMG-CoA reductase (Homo sapiens, UniProt P04035); assay: HMG-CoA reductase inhibitory activity test in vitro
T2 sequence (P04035 426-888 limits assumed): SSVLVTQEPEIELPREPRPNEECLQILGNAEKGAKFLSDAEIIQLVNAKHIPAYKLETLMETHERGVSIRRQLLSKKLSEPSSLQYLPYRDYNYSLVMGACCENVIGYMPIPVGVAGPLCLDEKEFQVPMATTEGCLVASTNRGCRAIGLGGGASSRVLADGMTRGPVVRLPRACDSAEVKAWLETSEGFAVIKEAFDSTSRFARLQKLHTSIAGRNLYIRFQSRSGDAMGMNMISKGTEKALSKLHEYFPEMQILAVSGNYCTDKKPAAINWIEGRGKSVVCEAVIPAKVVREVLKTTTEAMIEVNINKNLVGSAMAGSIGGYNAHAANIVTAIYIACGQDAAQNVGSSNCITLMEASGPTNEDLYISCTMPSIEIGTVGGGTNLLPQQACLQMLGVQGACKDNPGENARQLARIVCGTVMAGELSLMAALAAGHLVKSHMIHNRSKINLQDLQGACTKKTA
Description: Add 25 μL HMG-CoA reductase water solution (0.2 U/mL), 25 μL NADPH water solution (0.2 U/mL) and 24 μL phosphate buffer (50 mM, pH 7.0) into 1 μL different concentration of the above test solution. The mixed solution is standed for 10 min at room temperature, and then 25 μL HMG-CoA is added into the mixed solution. After the solution is incubated at 37∞ for 30 min and centrifuged at 5000 rpm for 5 minutes, 80 uL supernatant is added into 96-well plates and the absorbance is detected at 550 nm.
(§1) Repeat each of the above experiment groups for 3 times, and then average the results.

aldose reductase = aldose reductase (Homo sapiens, UniProt P15121); assay: aldose reductase inhibitory activity test in vitro
Description: Experimental procedure: the following reagents are added into 96-well plates in sequence and the mixture ratios of different groups are as followings:
Test group: 10 μL compound solution+25 μL (0.1 mM) NADPH solution+25 μL PBS buffer solution+15 μL aldose reductase diluent
Blank group: 25 μL (0.1 mM) NADPH solution+35 μL PBS buffer solution+15 μL aldose reductase diluent
Background group: 25 μL (0.1 mM) NADPH solution+60 μL PBS buffer solution+15 μL aldose reductase diluent
After adding the reagents, the 96-well plate is standed for 10 min at room temperature to make the compound and the enzyme react completely. Add 25 μL 10 mM D, L glyceraldehyde solution which is used as substrate into the groups except for background group, and incubate the solution at 37 °C for 30 min. Then detect the optical density of each well at 340 nm.

[1] = biological target: T3, protein tyrosine phosphatase 1B (PTP-1B) (Homo sapiens, UniProt P18031); assay: PTP-1B inhibitory activity test in vitro
T3 sequence (P18031 1-435): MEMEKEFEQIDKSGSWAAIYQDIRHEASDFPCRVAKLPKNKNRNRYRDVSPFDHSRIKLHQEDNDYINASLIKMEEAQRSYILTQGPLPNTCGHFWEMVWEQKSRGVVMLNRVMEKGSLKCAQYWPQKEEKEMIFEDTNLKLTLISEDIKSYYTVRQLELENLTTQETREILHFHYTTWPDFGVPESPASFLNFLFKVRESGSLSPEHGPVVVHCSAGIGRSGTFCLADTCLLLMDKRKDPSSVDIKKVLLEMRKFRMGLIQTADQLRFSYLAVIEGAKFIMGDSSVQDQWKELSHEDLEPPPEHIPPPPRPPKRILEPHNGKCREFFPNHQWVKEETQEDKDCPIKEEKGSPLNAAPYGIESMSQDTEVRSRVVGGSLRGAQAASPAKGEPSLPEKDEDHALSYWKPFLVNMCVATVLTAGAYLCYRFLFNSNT
Description: Experimental procedure: the following reagents are added into 96-well plates in sequence and the mixture ratios of different groups are as followings: Test group: 50 μL compound solution+50 μL 170 μg/mL PTP-1B solution […] Blank group: 50 μL buffer solution+50 μL 170 μg/mL PTP-1B solution Background group: 50 μL compound solution+50 μL buffer solution After adding the reagents, the 96-well plate is […] for 10 min at room temperature to make the compound and the enzyme react completely. Add 50 μL 1 mM pNPP solution which is used as substrate and incubate the mixed solution at 37 °C for 30 min. Then add 50 μL 3M NaOH into each well of the plate to stop the reaction and the optical density is detected at […].

α-glucosidase = biological target: T4, α-glucosidase (Saccharomyces cerevisiae, UniProt P53341); assay: α-glucosidase inhibitory activity test in vitro
T4 construct: purchased Sigma Corporation G5003
Description: Add 25 μL α-glucosidase water solution (0.2 U/mL) and 175 μL phosphate buffer (50 mM, pH 7.0) into 25 μL different concentration of the above test solutions. The mixed solution is standed for 10 min at room temperature, and then 25 μL 4-nitrophenyl-α-D-glucopyranoside water solution (2.5 mM) is added into the mixed solution. After the solution is incubated at 37 °C for 30 min and centrifuged at 5000 rpm for 5 minutes, 150 uL supernatant is added into 96-well plates and the absorbance is detected at 405 nm.
Blank group: the test solution is replaced by 25 μL phosphate buffer (50 mM, pH 7.0); blank control group: the test solution is replaced by 25 μL phosphate buffer (50 mM, pH 7.0), meanwhile α-glucosidase water solution is replaced by 25 μL phosphate buffer (50 mM, pH 7.0); sample control group: α-glucosidase water solution is replaced by 25 μL phosphate buffer (50 mM, pH 7.0).
as §1
IC50=[CL(IH−50)+CH(50−IL)]/(IH−IL) CL: low concentration value; CH: high concentration value; IH: inhibition rate in high concentration; IL: inhibition rate in low concentration

[2] = read-out: α-glucosidase inhibitory activity (IC50)

T1 sequence (P27487 whole entry, species assumed): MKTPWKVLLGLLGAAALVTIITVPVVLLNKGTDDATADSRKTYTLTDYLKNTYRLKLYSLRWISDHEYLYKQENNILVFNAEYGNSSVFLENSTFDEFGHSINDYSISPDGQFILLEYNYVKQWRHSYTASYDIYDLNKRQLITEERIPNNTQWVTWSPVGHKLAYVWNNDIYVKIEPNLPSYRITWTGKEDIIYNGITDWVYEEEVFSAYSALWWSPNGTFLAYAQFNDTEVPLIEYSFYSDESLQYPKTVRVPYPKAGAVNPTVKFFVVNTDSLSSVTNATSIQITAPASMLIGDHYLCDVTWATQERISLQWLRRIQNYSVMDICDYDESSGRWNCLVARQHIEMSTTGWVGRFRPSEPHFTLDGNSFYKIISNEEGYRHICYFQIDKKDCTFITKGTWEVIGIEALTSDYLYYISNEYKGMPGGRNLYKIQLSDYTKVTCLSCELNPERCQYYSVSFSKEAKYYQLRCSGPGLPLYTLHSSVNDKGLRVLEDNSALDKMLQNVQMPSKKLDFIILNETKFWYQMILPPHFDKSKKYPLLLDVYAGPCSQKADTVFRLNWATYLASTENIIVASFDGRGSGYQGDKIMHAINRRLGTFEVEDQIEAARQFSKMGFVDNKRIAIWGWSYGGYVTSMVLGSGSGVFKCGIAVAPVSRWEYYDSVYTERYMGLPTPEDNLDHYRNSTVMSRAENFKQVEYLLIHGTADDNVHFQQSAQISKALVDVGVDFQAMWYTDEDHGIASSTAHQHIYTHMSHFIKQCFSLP
T4 sequence (P53341 whole entry): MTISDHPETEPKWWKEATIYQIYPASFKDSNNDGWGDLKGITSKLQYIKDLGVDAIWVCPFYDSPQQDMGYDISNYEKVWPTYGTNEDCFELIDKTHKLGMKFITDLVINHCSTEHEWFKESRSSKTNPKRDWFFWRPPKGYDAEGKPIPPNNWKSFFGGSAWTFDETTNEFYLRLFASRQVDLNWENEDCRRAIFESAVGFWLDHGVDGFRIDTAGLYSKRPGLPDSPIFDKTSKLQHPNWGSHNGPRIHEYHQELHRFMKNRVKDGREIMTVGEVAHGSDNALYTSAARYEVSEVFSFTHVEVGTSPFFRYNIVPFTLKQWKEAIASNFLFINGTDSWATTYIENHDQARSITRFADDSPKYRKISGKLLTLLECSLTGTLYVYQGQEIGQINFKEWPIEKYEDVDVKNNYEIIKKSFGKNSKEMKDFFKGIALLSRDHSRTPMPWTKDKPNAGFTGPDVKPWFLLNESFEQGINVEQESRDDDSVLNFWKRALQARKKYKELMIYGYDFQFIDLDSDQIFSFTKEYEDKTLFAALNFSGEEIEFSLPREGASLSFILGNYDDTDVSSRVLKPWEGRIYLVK

Structure (SMILES): CCc1ccc([C@@H]2C=C(CC/C=C(\C)CCC=C(C)C)C(=O)O2)cc1 [S22, (S,E)-3-(4,8-dimethylnona-3,7-dien-1-yl)-5-(4-ethylphenyl)furan-2(5H)-one]
- IC50 (dipeptidyl peptidase-4): 9.5 µM
- IC50 (HMG-CoA reductase): 4.2 µM
- IC50 (aldose reductase): 55.6 µM
- IC50 [1]: 16.4 µM
- IC50 (α-glucosidase; [2]): 0.92 µM

Structure (SMILES): CC(C)=CCC/C(C)=C/CCC1=C[C@@H](c2ccc(C(C)C)cc2)OC1=O [S23, (S,E)-3-(4,8-dimethylnona-3,7-dien-1-yl)-5-(4-isopropylphenyl)furan-2(5H)-one]
- IC50 (dipeptidyl peptidase-4): 8.8 µM
- IC50 (HMG-CoA reductase): 87.2 µM
- IC50 (aldose reductase): 93.1 µM
- IC50 [1]: 9.6 µM
- IC50 (α-glucosidase; [2]): 49.2 µM

Structure (SMILES): CC(C)=CCC/C(C)=C/CCC1=C[C@@H](c2ccc(C(C)(C)C)cc2)OC1=O [S24, (S,E)-5-(4-(tert-butyl)phenyl)-3-(4,8-dimethylnona-3,7-dien-1-yl)furan-2 (5H)-one]
- IC50 (dipeptidyl peptidase-4): 15.8 µM
- IC50 (HMG-CoA reductase): 15.2 µM
- IC50 (aldose reductase): 1.2 µM
- IC50 [1]: 17.6 µM
- IC50 (α-glucosidase; [2]): 0.23 µM

Structure (SMILES): COc1ccc([C@@H]2C=C(CC/C=C(\C)CCC=C(C)C)C(=O)O2)cc1 [S25, (S,E)-3-(4,8-dimethylnona-3,7-dien-1-yl)-5-(4-methoxyphenyl)furan-2(5H)-one]
- IC50 (dipeptidyl peptidase-4): 18.5 µM
- IC50 (HMG-CoA reductase): 1.5 µM
- IC50 (aldose reductase): 101 µM
- IC50 [1]: 16.5 µM
- IC50 (α-glucosidase; [2]): 52.1 µM

Structure (SMILES): CC(C)=CCC/C(C)=C/CCC1=C[C@@H](c2ccc([N+](=O)[O-])cc2)OC1=O [S26, (S,E)-3-(4,8-dimethylnona-3,7-dien-1-yl)-5-(4-nitrophenyl)furan-2(5H)-one]
- IC50 (dipeptidyl peptidase-4): 10.6 µM
- IC50 (HMG-CoA reductase): 7.5 µM
- IC50 (aldose reductase): 5.3 µM
- IC50 [1]: 9.8 µM
- IC50 (α-glucosidase; [2]): 30.3 µM

Structure (SMILES): COc1ccc(OC)c([C@@H]2C=C(CC/C=C(\C)CCC=C(C)C)C(=O)O2)c1 [S27, (S,E)-5-(2,5-dimethoxyphenyl)-3-(4,8-dimethylnona-3,7-dien-1-yl)furan-2(5H)-one]
- IC50 (dipeptidyl peptidase-4): 8.6 µM
- IC50 (HMG-CoA reductase): 4.4 µM
- IC50 (aldose reductase): 25.2 µM
- IC50 [1]: 12.3 µM
- IC50 (α-glucosidase; [2]): 15.3 µM

Structure (SMILES): CC(C)=CCC/C(C)=C/CCC1=C[C@@H](c2c(F)cccc2F)OC1=O [S29, (S,E)-5-(2,6-difluorophenyl)-3-(4,8-dimethylnona-3,7-dien-1-yl)furan-2(5H)-one]
- IC50 (dipeptidyl peptidase-4): 23.5 µM
- IC50 (HMG-CoA reductase): 16.8 µM
- IC50 (aldose reductase): 33.5 µM
- IC50 [1]: 4.4 µM
- IC50 (α-glucosidase; [2]): 3.95 µM

Structure (SMILES): CC(C)=CCC/C(C)=C/CCC1=C[C@@H](c2cc(F)c(F)c(F)c2)OC1=O [S30, (S,E)-3-(4,8-dimethylnona-3,7-dien-1-yl)-5-(3,4,5-trifluorophenyl)furan-2(5H)-one]
- IC50 (dipeptidyl peptidase-4): 11.6 µM
- IC50 (HMG-CoA reductase): 24.2 µM
- IC50 (aldose reductase): 53.4 µM
- IC50 [1]: 21.1 µM
- IC50 (α-glucosidase; [2]): 1.25 µM

Structure (SMILES): COC1(c2cc(O)ccc2O)C=C(CC/C=C(\C)CCC=C(C)C)C(=O)O1 (centres unmarked) [S31, (E)-5-(2,5-dihydroxyphenyl)-3-(4,8-dimethylnona-3,7-dien-1-yl)-5-meth oxyfuran-2(5H)-one]
- IC50 (dipeptidyl peptidase-4): 15.4 µM
- IC50 (HMG-CoA reductase): 32.3 µM
- IC50 (aldose reductase): 87.6 µM
- IC50 [1]: 15.4 µM
- IC50 (α-glucosidase): 3.23 µM

Structure (SMILES): CC(C)=CCC/C(C)=C/CC/C(=C/C(=O)c1cc(O)ccc1O)C(=O)O [S32, (2Z,5E)-2-(2-(2,5-dihydroxyphenyl)-2-oxoethylidene)-6,10-dimethylundeca-5,9-dienoic acid]
- IC50 (dipeptidyl peptidase-4): 21.2 µM
- IC50 (HMG-CoA reductase): 5.4 µM
- IC50 (aldose reductase): 34.9 µM
- IC50 [1]: 7.6 µM
- IC50 (α-glucosidase; [2]): 5.43 µM

Structure (SMILES): C/C(=C\CC/C(C)=C/CC/C(=C/Cc1cc(O)ccc1O)C(=O)O)CO [S33, (2Z,5E,9E)-2-(2-(2,5-dihydroxyphenyl)ethylidene)-11-hydroxy-6,10-dimethylundeca-5,9-dienoic acid]
- IC50 (dipeptidyl peptidase-4): 18.7 µM
- IC50 (HMG-CoA reductase): 32.9 µM
- IC50 (aldose reductase): 23.1 µM
- IC50 [1]: 4.5 µM
- IC50 (α-glucosidase): 12.2 µM

Structure (SMILES): CC(C)=CCC/C(C)=C/CC/C(=C/Cc1cc(O)ccc1O)C(=O)O [S34, (2Z,5E)-2-(2-(2,5-dihydroxyphenyl)ethylidene)-6,10-dimethylundeca-5,9-dienoic acid]
- IC50 (dipeptidyl peptidase-4): 15.2 µM
- IC50 (HMG-CoA reductase): 12.6 µM
- IC50 (aldose reductase): 8.7 µM
- IC50 [1]: 12.9 µM
- IC50 (α-glucosidase; [2]): 0.98 µM

Structure (SMILES): C/C(C=O)=C\CC/C(C)=C/CC/C(=C/Cc1cc(O)ccc1O)C(=O)O [S35, (2Z,5E,9E)-2-(2-(2,5-dihydroxyphenyl)ethylidene)-6,10-dimethyl-11-oxo undeca-5,9-dienoic acid]
- IC50 (dipeptidyl peptidase-4): 7.8 µM
- IC50 (HMG-CoA reductase): 20.7 µM
- IC50 (aldose reductase): 5.6 µM
- IC50 [1]: 12.3 µM
- IC50 (α-glucosidase): 12.3 µM

Structure (SMILES): CC(C)=CCC/C(C)=C/CCC(CC(=O)c1cc(O)ccc1O)C(=O)O (centres unmarked) [S36, (E)-2-(2-(2,5-dihydroxyphenyl)-2-oxoethyl)-6,10-dimethylundeca-5,9-dienoic acid]
- IC50 (dipeptidyl peptidase-4): 21.8 µM
- IC50 (HMG-CoA reductase): 4.2 µM
- IC50 (aldose reductase): 6.3 µM
- IC50 [1]: 11.4 µM
- IC50 (α-glucosidase): 3.2 µM

Structure (SMILES): CC(C)=CCCC1=C[C@H](c2cc(O)ccc2O)OC1=O [S37, (R)-5-(2,5-dihydroxyphenyl)-3-(4-methylpent-3-en-1-yl)furan-2(5H)-one]
- IC50 (dipeptidyl peptidase-4): 15.4 µM
- IC50 (HMG-CoA reductase): 65.2 µM
- IC50 (aldose reductase): 12.6 µM
- IC50 [1]: 12.3 µM
- IC50 (α-glucosidase; [2]): 1.32 µM

Structure (SMILES): CC(C)=CCCC1=C[C@@H](c2cc(O)ccc2O)OC1=O [S38, (S)-5-(2,5-dihydroxyphenyl)-3-(4-methylpent-3-en-1-yl)furan-2(5H)-one]
- IC50 (dipeptidyl peptidase-4): 12.9 µM
- IC50 (HMG-CoA reductase): 12.5 µM
- IC50 (aldose reductase): 67.5 µM
- IC50 [1]: 9.8 µM
- IC50 (α-glucosidase; [2]): 1.23 µM
